Assay results taken from US8088819B2, “Derivatives of substituted 3-phenyl-1-(phenylthienyl)propan-1-ones and of 3-phenyl-1-(phenylfuranyl) propan-1-ones, preparation and use” (priority 2006, dated 2012).

What was measured:
db/db mouse = test: Plasma triglycerides and insulinemia in the db/db mouse; format: in vivo; conditions: 50 mpk oral, 28 days
Method: The effect of the compounds according to the invention is evaluated in vivo in the db/db mouse by measuring the plasma triglycerides and insulinemia after 28 days of treatment with compound 2 by the oral route. These levels are compared with those obtained with control animals (not treated with the compound according to the invention). The measured difference provides evidence of the antilipemic effect and effect on insulin resistance of the compound according to the invention.
Female db/db mice were kept under a cycle of light and darkness of 12/12 hours at a constant temperature of 20±3° C. After acclimation for one week, the mice were weighed and put in groups of 8 animals selected so that the distribution of their body weight and of their plasma lipid levels, determined for the first time before the experiment, are uniform. The test compounds were suspended in carboxymethylcellulose (Sigma C4888) and administered by intragastric force feeding, at a rate of once per day for 28 days at the chosen dose. The animals had free access to water and to food (standard diet). The food intake and the weight gain are recorded throughout the experiment. […]
The plasma concentrations of triglycerides were measured by enzyme assays (bioMérieux-Lyon-France) following the supplier's recommendations. […]

hPPARalpha = biological target: T1, hPPARalpha (Homo sapiens, UniProt Q07869); test: PPAR activation: Gal4-hPPARα chimera luciferase transactivation in COS-7 cells, Method 2; format: cell-based; conditions: COS-7, 24 h
T1 construct: expressed in transfected cells; host or cells: COS-7 (monkey kidney fibroblasts)
T1 sequence (Q07869 239-466 limits assumed): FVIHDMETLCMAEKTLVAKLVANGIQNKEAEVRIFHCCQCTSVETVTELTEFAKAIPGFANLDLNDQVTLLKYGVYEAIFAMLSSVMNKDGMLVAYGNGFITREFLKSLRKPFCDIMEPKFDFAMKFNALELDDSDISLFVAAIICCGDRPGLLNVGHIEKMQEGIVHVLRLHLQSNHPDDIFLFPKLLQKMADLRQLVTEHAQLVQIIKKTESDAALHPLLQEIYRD
Outline: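 COS-7 cells were transfected with Gal4-PPAR LBD chimera plus Gal4(RE)_TkpGL3 luciferase reporter (1/10) and seeded serum-free for 4 h. Compounds at 10^−5 to 100 μm were applied for 24 h at 37° C in 1% lipid-free synthetic serum. Luciferase was read after lysis, and EC50 derived.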

hPPARgamma = biological target: T2, hPPARgamma (Homo sapiens, UniProt P37231); test: PPAR activation: Gal4-hPPARγ chimera luciferase transactivation in COS-7 cells, Method 2; format: cell-based; conditions: COS-7, 24 h, Method 2
T2 construct: expressed in transfected cells; host or cells: COS-7 (monkey kidney fibroblasts)
T2 sequence (P37231 238-503 limits assumed): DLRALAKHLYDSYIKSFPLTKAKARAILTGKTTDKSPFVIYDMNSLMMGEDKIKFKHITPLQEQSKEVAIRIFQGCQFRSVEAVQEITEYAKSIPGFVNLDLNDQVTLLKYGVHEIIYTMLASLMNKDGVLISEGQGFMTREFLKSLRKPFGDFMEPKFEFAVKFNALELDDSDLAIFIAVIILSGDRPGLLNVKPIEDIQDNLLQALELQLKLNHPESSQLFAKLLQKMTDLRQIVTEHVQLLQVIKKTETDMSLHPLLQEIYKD
Outline: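 Transactivation by a Gal4 DNA-binding domain–hPPARγ ligand-binding domain chimera with a Gal4(RE)-luciferase reporter, transfected into COS-7 cells (plasmid ratio 1/10).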

EC50 (hPPARalpha; 1% Ultroser) | Emax (hPPARalpha; maximum percentage response relative to the reference phenofibric acid, read-out: hPPARalpha % max) | Emax (hPPARgamma; maximum percentage response relative to the reference rosiglitazone, read-out: hPPARgamma % max) | EC50 (hPPARgamma; 1% Ultroser, read-out: hPPARgamma EC50) | Compound | insulinemia (plasma levels of insulin) (db/db mouse) | plasma triglyceride level (db/db mouse)
 |  |  |  | CC(C)(Oc1ccc(CCC(=O)c2ccc(-c3ccc(C(F)(F)F)cc3)s2)c(Cl)c1Cl)C(=O)O [Compound 2, 2-(2,3-dichloro-4-(3-oxo-3-(5-(4-(trifluoromethyl)phenyl)thien-2-yl)propyl)phenoxy)-2-methylpropanoic acid] | lowered significantly | lowered significantly
5.46 µM | 20% | 40% | 1.7 µM | CC(C)(Oc1ccc(CCC(OCc2ccccc2)c2ccc(-c3ccc(C(F)(F)F)cc3)s2)c(Cl)c1Cl)C(=O)O (stereo not drawn) [Compound 7, 2-(4-(3-(benzyloxy)-3-(5-(4-(trifluoromethyl)phenyl)thien-2-yl)propyl)-2,3-dichlorophenoxy)-2-methylpropanoic acid] |  | 
